Experimental data as given in US9468624B2, “Small molecule antagonists of bacterial quorum-sensing receptors” (priority 2008, dated 2016).

Tests used:
[1] = tested on: CviR-dependent violacein production; test: Violacein production in wild type C. violaceum, dose-response; assay type: cell-based; conditions: Chromobacterium violaceum, read-out: IC50 for inhibition of violacein production
Description: E. coli strains were grown overnight in LB medium with antibiotics at 37° C. and sub-cultured into fresh medium at a 1:100 dilution. Various AHL and antagonists were added at constant concentrations or titrated as stated. The gfp was measured on an Envision plate reader after 5 hours of growth at 37° C. C. violaceum strains were grown aerobically in 1 mL Nutrient Broth plus 1 mM tryptophan at 30° C. […] Cells were collected via centrifugation at 13000 rpm for 15 minutes. Pellets were resuspended in 1 mL of methanol and incubated at 42° C. for 1 hour. Samples were again collected via centrifugation at 13000 rpm for 5 minutes and analyzed for violacein by measuring optical density at 568 nm on a Beckman Coulter DU-800 spectrophotometer. For the dose-response analyses, all assays were performed in triplicate.
To determine if 4606-4237 inhibits violacein production specifically by interfering with CviR, 4606-4237 was tested for antagonism of CviR in the recombinant E. coli vioA-gfp assay. For these experiments, C6-HSL was held constant at 500 nM, while 4606-4237 was titrated from 1.3 nM to 100 μM (FIG. 3D). This concentration of native C6-HSL signal induces maximal gfp production in this heterologous assay system. Importantly, no C. violaceum components other than CviR are present in the recombinant E. coli assay strain. Thus, any inhibition occurring would be due to a specific interaction between the antagonist molecule 4606-4237 and CviR rather than an interaction of 4606-4237 with some unknown component required for violacein production in C. violaceum. […] Thus, 4606-4237 functions by disabling CviR-mediated activation of gene expression in both the C. violaceum in vivo violacein assay and the recombinant E. coli vioA-gfp assay.

CviR = CviR (Chromobacterium violaceum, UniProt D3W065); conditions: CviR expressed in E. coli, whole cell vs soluble extract, ligand 50 μM
Description: CviR Overexpression and Purification. CviR was overexpressed in BL21(DE3) pLysS by growing an overnight culture in LB supplemented with 100 μg/mL ampicillin and 10 μg/mL chloramphenicol. The culture was diluted 1:50 into fresh LB supplemented with 100 μg/mL ampicillin and 10 μg/mL chloramphenicol and grown shaking at 37° C. to an OD600 of 0.4. Various AHL or antagonist molecules were added to at 50 μM and incubated an additional 30 minutes at 30° C., after which expression was induced by the addition of 100 μM IPTG (isopropyl-β-D-thiogalactopyranoside) for 4 hours at 30° C. Cells were harvested by centrifugation and lysed in 20 mM imidazole pH 8.0, 100 mM NaCl, 0.5 mM EDTA and 5% glycerol via a Micro-fluidizer processor (MicroFluidics). Protein was purified via ion-exchange using a Hitrap Heparin HP column (GE Healthcare). Protein was eluted with a 100 mM to 1 M NaCl gradient. Fractions containing CviR were pooled and diluted in lysis buffer devoid of NaCl, and then further purified by cation exchange chromatography using a Hitrap SP HP column (GE Healthcare). CviR was eluted with a 100 mM to 1 M NaCl gradient.
The solubility characteristics of CviR were analyzed in the presence of the various molecules under study. […] As controls, the protein was also expressed in the absence of any AHL or antagonist. In each case, whole cell and soluble fractions of cell lysates were analyzed by SDS-PAGE to assess whether the CviR protein in question had been stabilized.

LuxN = molecular target: T1, LuxN (Vibrio campbellii, UniProt A7MRY4); test: V. harveyi bioluminescence dose-response; assay type: cell-based, Vibrio harveyi; conditions: IC50 for inhibition of bioluminescence
T1 construct: Light production from wild type V. harveyi (BB120), a luxPQ mutant (BB960), and a luxPQ, luxS double mutant (JMH624) was measured; endogenous in cells; host or cells: V. harveyi BB120, BB960 (luxQ::Tn5), JMH624 (ΔluxM, luxQ::Tn5)
Description: Wild type C. violaceum strain ATCC31532 was purchased from the ATCC. The cviI mutant strain, CV026 was kindly supplied by Clay Fuqua and Paul Williams. C. violaceum strains were grown aerobically at 30° C. in either Luria-Bertani broth or Nutrient Broth supplemented with 1 mM trypotophan. V. harveyi strains were grown aerobically at 30° C. in autoinducer bioassay (AB) broth. AI-1 dose-response curves were generated in V. harveyi strains BB120, BB960 and JMH624 as described. E. coli was grown at 37° C. in Luria Bertani broth. The plasmid pET23b (Novagen) was used for expressing cviR in E. coli strain BL21-Gold (DE3) or BL21(DE3) pLysS (Stratagene) and maintained by inclusion of Ampicillin at 100 μg/ml. Plasmid pEVS141 was used for the vioA-gfp promoter fusion and maintained with 50 μg/ml of Kanamycin. C. elegans wild type strain, N2 was used for all of the nematode infection studies. Worms were propagated on Nematode Growth Media (NGM) medium with an E. coli OP50 lawn as the food source and allowed to multiply at 20° C.
To determine the properties of CTL and CL in relation to the LuxN receptor, the in vivo activity was examined of 4606-4237, CTL, and CL for V. harveyi LuxN using dose response analyses of the endogenous quorum-sensing-activated target, bioluminescence. Three different V harveyi strains were examined (1) The wild type V. harveyi strain BB120 which has multiple quorum-sensing circuits, and thus responds to multiple autoinducers, only one of which is the AHL acting through LuxN. (2) V. harveyi BB960 which lacks the receptor for the second autoinducer making the AHL-LuxN circuit the dominant input into bioluminescence expression. (3) V. harveyi JMH624 which, in addition to lacking the receptor for the second autoinducer lacks the AHL synthase LuxM. Thus, V. harveyi JMH624 induces bioluminescence exclusively in response to the AHL, 3OH-C4-HSL signal but only when it is supplied exogenously. Exogenous addition of 20 nM 3OH-C4-HSL is sufficient to induce maximal bioluminescence in all of these strains.

[2] = V. harveyi JMH624 + 20 nM 3OH-C4-HSL

T1 sequence (A7MRY4 whole entry): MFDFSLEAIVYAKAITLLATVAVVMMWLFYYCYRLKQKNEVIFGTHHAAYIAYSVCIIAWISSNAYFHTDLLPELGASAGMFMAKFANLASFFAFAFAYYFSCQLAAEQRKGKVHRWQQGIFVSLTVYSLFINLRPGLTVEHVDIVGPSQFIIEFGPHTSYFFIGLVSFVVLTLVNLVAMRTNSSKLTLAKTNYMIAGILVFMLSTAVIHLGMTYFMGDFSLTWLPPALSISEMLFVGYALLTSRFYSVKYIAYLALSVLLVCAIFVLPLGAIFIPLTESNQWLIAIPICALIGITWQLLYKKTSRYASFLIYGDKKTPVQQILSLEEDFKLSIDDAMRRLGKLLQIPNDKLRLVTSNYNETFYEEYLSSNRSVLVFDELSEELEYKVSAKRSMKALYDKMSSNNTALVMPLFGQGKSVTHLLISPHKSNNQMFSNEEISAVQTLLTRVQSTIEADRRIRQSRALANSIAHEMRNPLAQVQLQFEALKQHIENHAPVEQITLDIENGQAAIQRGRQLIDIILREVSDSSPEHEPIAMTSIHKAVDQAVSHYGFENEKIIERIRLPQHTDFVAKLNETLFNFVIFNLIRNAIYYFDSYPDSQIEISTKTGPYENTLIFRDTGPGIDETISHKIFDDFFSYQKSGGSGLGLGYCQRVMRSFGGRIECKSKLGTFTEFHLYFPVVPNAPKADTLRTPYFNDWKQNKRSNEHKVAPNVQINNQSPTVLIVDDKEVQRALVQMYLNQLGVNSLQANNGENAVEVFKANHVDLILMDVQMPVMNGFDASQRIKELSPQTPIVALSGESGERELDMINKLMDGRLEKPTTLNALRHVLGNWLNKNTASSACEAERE
Sequence of CviR (D3W065 1-265): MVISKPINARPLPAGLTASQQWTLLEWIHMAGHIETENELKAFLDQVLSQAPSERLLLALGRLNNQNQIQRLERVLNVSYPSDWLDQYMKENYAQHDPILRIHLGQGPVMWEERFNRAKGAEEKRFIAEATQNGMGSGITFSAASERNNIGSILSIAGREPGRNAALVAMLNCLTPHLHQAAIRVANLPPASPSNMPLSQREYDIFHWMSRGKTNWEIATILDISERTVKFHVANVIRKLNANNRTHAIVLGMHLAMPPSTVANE

Compound: O=C(CCCOc1ccc(Cl)cc1)NC1CCOC1=O (stereo not shown) [CL, chlorolactone]
- IC50 [1]: 0.295 µM
- CviR folding and solubility in presence of ligand (CviR): promoted CviR31532 folding and solubility
- IC50 (LuxN; V. harveyi BB960): 14 µM
- IC50 (LuxN; [2]): 0.873 µM
- IC50 (LuxN; wild type V. harveyi BB120): 40 µM

Compound: O=C(CCCOc1ccc(Cl)cc1)NC1CCSC1=O (stereo not shown) [CTL, Chloro-thiolactone]
- IC50 [1]: 0.723 µM
- CviR folding and solubility in presence of ligand (CviR): promoted CviR31532 folding and solubility
- IC50 (LuxN; V. harveyi BB960): 28 µM
- IC50 (LuxN; [2]): 6 µM
- IC50 (LuxN; wild type V. harveyi BB120): 150 µM
